Laboratory results reported in patent US11357786B2, “Synthetic disugar hydrocarbons as natural analogs to control microbial behaviors” (Syracuse University, priority 2014, dated 2022).
“Also recorded” adds a separate entry of the source.

Experiments:
Type in all cases: cell-based, Pseudomonas aeruginosa
[1] = test system: wild type PAO1; experiment: Swarming motility of wild type PAO1 on soft agar (antagonist assay); details: for Swarming motility of wild type PAO1: 85 μM in soft agar, 24 h; for Effect on PAO1 swarming: concentration not given
Method: In contrast, the wild type P. aeruginosa produces the rhamnolipids and is capable of swarming on soft agar gel (˜0.5% agar). […] We note that saccharide hydrocarbons may also promote the swarming motility, but such promotions are less unambiguous than the inhibition for wild type PAO1. Such promotion will be unambiguous in the agonist assay using the nonswarming mutant rhlA.
(§1) Swarm agar plates were based on M8 medium supplemented with 0.2% glucose, 0.5% casamino acid, 1 mM MgSO4 and […]. 17 For each set of experiment all the swarm plates were poured from same batch of agar and allowed to dry for 1 h before inoculation of bacteria. Bacterial culture (3 μl) (wild type PAO1 or rhlA mutant) with OD600 between […] was inoculated on the solidified agar plates. Swarm agar plates were incubated at 37° C. for 12 h and then incubated for additional 12 h at room temp. Chronological images of swarm plates were taken using a camera. To measure swarming area, sizes of the petridish in all swarming images were adjusted to a pre-assigned diameter and images were printed on copying paper (Xerox-business 4200). Weight of a 1 cm^2 copy paper square was roughly ˜8.0 mg. swarming images on the copy paper were cut and weighed, the swarm area was calculated by dividing the weight of image by weight of 1 cm^2 square (8 mg).
(§2) Swarm agar plates were made using M8 medium supplemented with 0.2% glucose, 0.5% casamino acid, 1 mM MgSO4 and solidified with 0.5% Bacto agar. 24 Bacterial culture with OD600 between 0.4 to 0.6 was inoculated as 3 μl aliquots. Swarm agar plates were incubated at 37° C. for 12 h and then incubated for additional 12 h at rt. For each set of experiment all the swarm plates were poured from same batch of agar and allowed to dry for 1 h before inoculation of bacteria.

[2] = test system: 1-day old PAO1 biofilm; experiment: Crystal violet assay for dispersion of 1-day old biofilm, DSHs (Examples 2 and 4); details: 160 μM, another 24 h
Method: (§3) The effect that DSHs have on the adhesion of PAO1-EGFP on polystyrene surface (microtiter plate) was also examined. PAO1-EGFP is a P. aeruginosa strain that constitutively expresses green fluorescent protein. In the adhesion assays, PAO1-EGFP was grown in microtiter plate for 24-hours in LB-media with (160 μM) or without DSHs. After 24-hours, the fluorescent signal obtained from surface adhered PAO1-EGFP was measured. Percent reduction in fluorescence was calculated by comparing fluorescent signal from PAO1-EGFP grown in LB-media with the signal from wells that had DSHs (FIG. 29A). To study the effect of DSHs on biofilm formation, Pseudomonas aeruginosa (PAO1) was grown in LB-media with (160 μM) or without DSHs at 37° C. under static conditions within wells of microtiter plates. After 24 hours, the surface attached biofilms adhering to the bottom of the wells were stained with crystal-violet dye and the biofilm was quantified by measuring absorbance at 600 nm (OD600). The percent inhibition was calculated by comparing biofilm content of wells with no added agents (control) with the biofilm content from wells that had 160 μM of DSHs (FIG. 29A). Similar to inhibition, the surface attached biofilm after dispersion with DSHs was quantified with crystal-violet staining and absorbance measurement at 600 nm, except that for dispersion, biofilm was first grown for 1 day in just LB-media without any DSHs after which DSHs were added and plates were incubated for additional 24 hours followed by quantification (FIG. 29B).
Crystal violet based assay for quantifying dispersion of 1-day old PAO1 biofilms were Plate for set up similar to inhibition assay with a slight modification. Wells of the micro-titer plate was inoculated with (200 μL) bacterial subculture (PAO1 subculture OD600 ˜0.1). The plates were incubated at 37° C. for 24 hours to allow biofilm formation. After 24 hours, bacterial culture was gently pipetted out and appropriate volume of DSH were added followed by addition of fresh LB medium (200 μL). The microtiter plate was incubated for an additional 24 hours at 37° C., following which, similar to work up of inhibition assay, culture was removed, wells were washed and CV-dye was introduced, followed by washing and destaining with 30% AcOH solution in water and quantification at 600 nm. Here again, only the surface attached biofilm dispersed was reported by comparing wells with DSHs with wells with no agent.
Dose dependence assays for biofilm inhibition and dispersion. […] Both for biofilm inhibition and dispersion, predetermined volumes of DSH stocks were added to the assigned wells to span a concentration range between 0.5 μM-170 μM. Percent biofilm inhibition of dispersion was calculated by comparing to wells with no agent. The percent biofilm inhibition or dispersion was plotted versus concentration of DSHs. The linear values were logarithmically curve fitted using equation […]. The half maximal inhibitory concentration for both biofilm inhibition and dispersion (IC50 and DC50) were thus obtained.

[3] = test system: PAO1 biofilm; experiment: Crystal violet based static biofilm inhibition assay, DSHs in LB media (Examples 2 and 4); details: for Inhibition of PAO1 biofilm formation (surface attached): 160 μM, 24 h, LB media; for Anti-biofilm activity (biofilm inhibition): concentration not given
Method: The ability of DSHs was tested to inhibit Pseudomonas aeruginosa adhesion, biofilm and to disperse pre-formed biofilm. To quantify the amount of PAO1/EGFP attached on the surface of micro titer plates with or without the synthesized DSHs, fluorescence emitted by green fluorescent proteins (GFP) was quantified (see supporting info for details). Crystal violet (CV) based static biofilm assay (see supporting info) was used to screen the anti-biofilm potencies of all synthesized agents. Both surface attached (SA) (FIG. 17) and total (SA+air-liquid interface) biofilm of P. aeruginosa was quantified. […] CV assays were also used to quantify the amount of P. aeruginosa biofilm remaining after dispersion experiments (FIG. 19). Initially, all agents were screen for anti-biofilm activities (both inhibition and dispersion) at 160 μM. […] All reported biofilm inhibition results are an average of 4 identical wells.
as §3, with “The percent inhibition was calculated by comparing biofilm content of wells with no added agents (control) with the biofilm content from wells that had 160 μM of DSHs (FIG. 29A).” left out
Crystal violet (CV) based-biofilm inhibition assay. Inhibitory effect of all synthesized disaccharide hydrocarbons on biofilm formation of Pseudomonas aeruginosa (wild type PAO1) was determined by static biofilm inhibition assay using crystal violet staining. Overnight culture of PAO1 were sub cultured in LB media to OD600 of 0.01 and further the OD600 was allowed to reach ˜0.1. The bacterial sub-culture (200 μL) was then added into the wells of a microtiter plate. Predetermined concentrations of DSHs were added to respective wells containing sub culture by pipetting out fixed volume of sterile aqueous stock solutions (except DβL (7), SPOT, (15) and 2-ODαC (17), which were introduced as stocks prepared in H2O […] and EtOH (90:10) solutions). The microtiter plates were then wrapped in GLAD Press n′ Seal® (saran wrap) and further incubated under stationary conditions for 24 h at 37° C. After 24 h incubation, the culture media was discarded by pipetting carefully (without disrupting biofilm), the plate was then washed once with sterile water (200 μL) and allowed to dry at 37° C. for ˜30 mins. Microtiter plates were then stained with 0.1% aqueous solution of crystal violet (CV) (200 μL) at rt for ˜30 mins. Following this, the CV stain was removed and plate was again washed with sterile water (200 μL). Resultant CV stain in the well was then solubilized by adding 100 μL of 30% AcOH solution (in water) and mixing gently by pipetting.

[4] = test system: nonswarming P. aeruginosa mutant rhlA; experiment: Swarming motility of nonswarming rhlA mutant on soft agar (reactivation / agonist assay); details: for Swarming motility of rhlA mutant: 85 μM in soft agar (0.5%), 24 h
Source text: Using nonswarming mutant to screen for swarming agonists and wild type P. aeruginosa for swarming antagonists. The transposon mutant, rhlA (genotype, rhlA-E08:ISphoA/hah)39 of P. aeruginosa (PAO1), that impairs the gene that is responsible for synthesizing rhamnolipids is completely incapable of a swarming motility. […] Based on this inference, a rhlA mutant was used in a swarming experiment to screen the saccharide-hydrocarbons for agonists that can reactivate the swarming motility of rhlA.
as §1, §2

[5] = test system: PAO1 biofilm; experiment: Crystal violet dye based biofilm inhibition assay, maltose derivatives (Example 1); details: 110 μM, 24 h, CV assay
Method: A crystal violet (CV) assay was used to measure the amount of PAO1 biofilm formed after 24 h of bacterial inoculation. The fluorescence of green fluorescent proteins (GFP) expressed by PAO1-GFP was measured to directly quantify bacterial adhesion on polystyrene black 96 well plates with and without maltose derivatives after 2 h of bacterial inoculation. To evaluate the potential of maltose derivatives as both anti-biofilm and anti-adhesion agents, they were compared to a brominated furanone (BF8) known to inhibit biofilm formation, and two generic surfactants, sodium dodecyl sulfate (SDS) and tetra (ethylene glycol) monododecyl ether (C12EG4OH). […] P. aeruginosa strain PAO1-EGFP that constitutively producing green fluorescent protein was allowed to form biofilm on sterile steel coupons.
Inhibitory effect of all the maltose hydrocarbons on P. aeruginosa biofilm formation was determined by crystal violet dye based biofilm inhibition assays. Overnight culture of wild type P. aeruginosa (PAO1) was sub cultured to an OD600 of 0.01 into the 95:5 M9+:Lb medium. 200 μL of the sub culture was aliquoted into the wells of 96 well polystyrene microtiter plate when it reached the OD600 of 0.1. Predetermined concentrations of the test compounds were then added to the respective wells containing sub culture. Sample plates were wrapped in GLAD Press n′ Seal® followed by incubation under stationary conditions for 24 h at 37° C. After incubation the media was discarded and the plates were washed with water and dried for 1 h at 37° C. The sample plates were stained with 200 μL of 0.1% aqueous solution of crystal violet (CV) and followed by incubation at ambient temperature for 20 min. The CV stain was then discarded and the plates were washed with water. The remaining biofilm adhered stain was re-solubilized with 200 μL of 30% acetic acid. After the stain was dissolved (15 minutes), 100 μL of the solubilized CV was transferred from each well into the corresponding wells of a new polystyrene microtiter dish. Biofilm inhibition was quantified by measuring the OD600 of each well in which a negative control lane wherein no biofilm was formed served as a background and was subtracted out. The percent inhibition was calculated by the comparison of the OD600 for biofilm grown in the absence of compound (control) versus biofilm grown in the presence of compound under identical conditions.
Predetermined amounts maltose derivatives stock solution was added to the 200 μL bacterial culture in 96 well plate so that the final concentration of the agent reaches the desired values of 1, 5, 10, 20, 40, 85, 113, 140 μM. Biofilm inhibition and dispersion assay was carried as described previously.

Row | Compound | Swarming motility of wild type PAO1 [1] | Effect on PAO1 swarming [1] | Dispersion of 24-h old PAO1 biofilm [2] | Inhibition of PAO1 biofilm formation (surface attached) ([3]; listed as 16: 2-ODβC, 160 µM) | Anti-biofilm activity (biofilm inhibition) [3] | Swarming motility of rhlA mutant [4] | Inhibition of PAO1 biofilm formation (surface attached) [3] | Inhibition of PAO1 biofilm formation (surface attached) ([3]; listed as 17: 2-ODαC, 160 µM) | Inhibition of PAO1 biofilm [5] | Reactivation of swarming motility of rhlA mutant ([4]; concentration not given)
1 | CCCCCCCCCCC(CCCCCCCC)CO[C@@H]1O[C@H](CO)[C@@H](O[C@@H]2O[C@H](CO)[C@@H](O)[C@H](O)[C@H]2O)[C@H](O)[C@H]1O (stereo partly drawn) [2-ODβC (16), 2-octyl-dodecyl-β-cellobioside] | inhibited the swarming motility of wild type PAO1 | did exhibit inhibition of PAO1 swarming; also recorded: inhibits the swarming activities of PAO1; also recorded: PAO1 swarming inhibitors | not active for biofilm inhibition or dispersion | ineffective at biofilm inhibition | not effective at inhibiting the biofilm formation | no apparent effect on rhlA | – | – | – | –
2 | CCCCCCCCCCC(CCCCCCCC)CO[C@H]1O[C@H](CO)[C@@H](O[C@@H]2O[C@H](CO)[C@@H](O)[C@H](O)[C@H]2O)[C@H](O)[C@H]1O (stereo partly drawn) [2-ODαC (17), 2-octyl-dodecyl-α-cellobioside] | – | – | not active for biofilm inhibition or dispersion | – | – | – | not active for biofilm inhibition or dispersion | ineffective at biofilm inhibition | – | –
3 | CCCCCCCCCCC(CO[C@@H]1O[C@H](CO)[C@@H](O[C@H]2O[C@H](CO)[C@@H](O)[C@H](O)[C@H]2O)[C@H](O)[C@H]1O)Cc1ccc(C(C)(C)C)cc1 (stereo partly drawn) [4-tBuBDβM, 4-tertiary butyl benzyl dodecyl β-maltoside] | – | – | – | – | – | did not exhibit any significant activation of swarming | – | – | 74% | –
4 | CCCCCCCCCCCO[C@@H]1O[C@H](CO)[C@@H](O[C@@H]2O[C@H](CO)[C@@H](O)[C@H](O)[C@H]2O)[C@H](O)[C@H]1O [UβC (3), undecyl-β-cellobioside] | causing significant amount of tendril formation | induced tendril formation in the swarming pattern of PAO1 | – | – | did not show significant inhibition of PAO1 biofilm | strong reactivation of the swarming motility in rhlA mutant | – | – | – | activated the swarming motility of rhlA mutant
5 | benzyl decyl β-maltoside [BDeβM] | – | – | – | – | – | swarming motility with without well-defined tendrils | – | – | 50% | –
